Experimental data as given in patent US11472792B2, “Herbicidal mixtures” (SYNGENTA CROP PROTECTION AG, priority 2019, dated 2022).

Key:
Type in all cases: in vivo
[1] = system: Echinochloa crus-galli (ECHCG); assay: Herbicidal efficacy, post-emergence application (glasshouse); conditions: Echinochloa crus-galli, 312 h, evaluated visually after 13 days, 100=total damage, 0=no damage, read-out: percentage phytotoxicity to the plant, ECHCG
Protocol: (§1) Seeds of a variety of test species [Ipomoea hederacea (IPOHE); Zea mays (ZEAMX); Echinochloa crus-galli (ECHCG); Setaria faberi (SETFA); Abutilon theophrasti (ABUTH); Amaranthus retroflexus (AMARE)] were sown in standard sterilised soil in pots. After cultivation for one day (pre-emergence) or after 8 days cultivation (post-emergence) under controlled conditions in a glasshouse (at 24/16° C., day/night; 14 hours light; 65% humidity), the plants were sprayed with an aqueous spray solution derived from the formulation of the technical active ingredient in acetone/water (50:50) solution containing 0.5% Tween 20 (polyoxyethelyene sorbitan monolaurate, CAS RN 9005-64-5), subsequently diluted in water, and sprayed to give the stated application rate.
(§2) The test plants were then grown under controlled conditions in a glasshouse (at 24/16° C., day/night; 14 hours light; 65% humidity) and watered twice daily.
(§3) After 13 days for pre and post-emergence, the test was evaluated visually for percentage phytotoxicity to the plant (where 100=total damage to plant; 0=no damage to plant).

[2] = system: Abutilon theophrasti (ABUTH); assay: as above; conditions: Abutilon theophrasti, 312 h, evaluated visually after 13 days, 100=total damage, 0=no damage, read-out: percentage phytotoxicity to the plant, ABUTH
Protocol: as §1, §2, §3

[3] = system: Amaranthus retroflexus (AMARE); assay: as above; conditions: Amaranthus retroflexus, 312 h, evaluated visually after 13 days, 100=total damage, 0=no damage, read-out: percentage phytotoxicity to the plant, AMARE
Protocol: as §1, §2, §3

[4] = system: Ipomoea hederacea (IPOHE); assay: as above; conditions: Ipomoea hederacea, 312 h, evaluated visually after 13 days, 100=total damage, 0=no damage, read-out: percentage phytotoxicity to the plant, IPOHE
Protocol: as §1, §2, §3

Zea mays (ZEAMX) [5] = assay: as above; conditions: Zea mays, 312 h, evaluated visually after 13 days, 100=total damage, 0=no damage, read-out: percentage phytotoxicity to the plant, ZEAMX
Protocol: as §1, §2, §3

Setaria faberi (SETFA) [6] = assay: as above; conditions: Setaria faberi, 312 h, evaluated visually after 13 days, 100=total damage, 0=no damage, read-out: percentage phytotoxicity to the plant, SETFA
Protocol: as §1, §2, §3

[7] = system: Echinochloa crus-galli (ECHCG); assay: Herbicidal efficacy, pre-emergence application (glasshouse); conditions: Echinochloa crus-galli, 312 h, evaluated visually after 13 days, 100=total damage, 0=no damage, read-out: percentage phytotoxicity to the plant, ECHCG
Protocol: as §1, §2, §3

[8] = system: Abutilon theophrasti (ABUTH); assay: as above; conditions: Abutilon theophrasti, 312 h, evaluated visually after 13 days, 100=total damage, 0=no damage, read-out: percentage phytotoxicity to the plant, ABUTH
Protocol: as §1, §2, §3

[9] = system: Amaranthus retroflexus (AMARE); assay: as above; conditions: Amaranthus retroflexus, 312 h, evaluated visually after 13 days, 100=total damage, 0=no damage, read-out: percentage phytotoxicity to the plant, AMARE
Protocol: as §1, §2, §3

[10] = system: Ipomoea hederacea (IPOHE); assay: as above; conditions: Ipomoea hederacea, 312 h, evaluated visually after 13 days, 100=total damage, 0=no damage, read-out: percentage phytotoxicity to the plant, IPOHE
Protocol: as §1, §2, §3

Zea mays (ZEAMX) [11] = assay: as above; conditions: Zea mays, 312 h, evaluated visually after 13 days, 100=total damage, 0=no damage, read-out: percentage phytotoxicity to the plant, ZEAMX
Protocol: as §1, §2, §3

Setaria faberi (SETFA) [12] = assay: as above; conditions: Setaria faberi, 312 h, evaluated visually after 13 days, 100=total damage, 0=no damage, read-out: percentage phytotoxicity to the plant, SETFA
Protocol: as §1, §2, §3

Structure (SMILES)	pest or weed control at 250 g/ha [1]	pest or weed control at 250 g/ha [2]	pest or weed control at 250 g/ha [3]	pest or weed control at 250 g/ha [4]	plant injury at 250 g/ha (Zea mays (ZEAMX) [5])	pest or weed control at 250 g/ha (Setaria faberi (SETFA) [6])	pest or weed control at 250 g/ha [7]	pest or weed control at 250 g/ha [8]	pest or weed control at 250 g/ha [9]	pest or weed control at 250 g/ha [10]	plant injury at 250 g/ha (Zea mays (ZEAMX) [11])	pest or weed control at 250 g/ha (Setaria faberi (SETFA) [12])
CN1C[C@H](c2cc(C(F)(F)F)n(C)n2)[C@@H](C(=O)Nc2cccc(F)n2)C1=O [Compound 2.9, (3S,4R)-N-(6-fluoro-2-pyridyl)-1-methyl-4-[1-methyl-5-(trifluoromethyl)pyrazol-3-yl]-2-oxo-pyrrolidine-3-carboxamide]	80%	0%	0%	50%	40%	80%	100%	0%	0%	40%	80%	90%
CN1C[C@H](c2cc(C(F)(F)F)n(C)n2)[C@@H](C(=O)Nc2cccc(F)c2F)C1=O [Compound 2.1, (3S,4R)-N-(2,3-difluorophenyl)-1-methyl-4-[1-methyl-5-(trifluoromethyl)pyrazol-3-yl]-2-oxo-pyrrolidine-3-carboxamide]	90%	0%	20%	0%	80%	90%	100%	10%	70%	30%	90%	90%
